Measurements reported in ChEMBL document CHEMBL1201862, “PubChem BioAssay data set” (2004).
Structures can show the parent of a compound that is named as a salt. Active and inactive are the calls of the source.

Key:
[1] = molecular target: T1, Calpain-2 catalytic subunit (Sus scrofa, UniProt P43367); experiment: m-calpain protease blockers, concentration series – biochemical, fluorogenic peptide substrate, dose response (AID 1420); format: functional
T1 sequence (P43367 whole entry): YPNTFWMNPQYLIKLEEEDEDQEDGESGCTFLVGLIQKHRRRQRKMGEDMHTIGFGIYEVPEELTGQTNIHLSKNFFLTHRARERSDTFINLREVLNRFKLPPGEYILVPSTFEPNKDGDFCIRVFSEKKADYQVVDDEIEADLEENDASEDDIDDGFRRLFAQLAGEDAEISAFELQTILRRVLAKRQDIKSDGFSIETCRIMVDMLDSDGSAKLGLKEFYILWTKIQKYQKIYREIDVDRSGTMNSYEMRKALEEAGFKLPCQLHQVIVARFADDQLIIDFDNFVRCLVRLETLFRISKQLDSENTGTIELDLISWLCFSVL

[2] = M. tuberculosis H37Rv growth inhibitors, H37Rv strain (AID 1626); format: functional
[3] = test system: Escherichia coli; experiment: microbe, parasite or virus in culture
[4] = molecular target: Cytochrome P450 2C9 (Homo sapiens, UniProt P11712)
[5] = molecular target: T2, Cytochrome P450 1A2 (Homo sapiens, UniProt P05177);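 also: PubChem cytochrome P450 panel assay, CYP1A2 panel member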
T2 sequence (P05177 whole entry): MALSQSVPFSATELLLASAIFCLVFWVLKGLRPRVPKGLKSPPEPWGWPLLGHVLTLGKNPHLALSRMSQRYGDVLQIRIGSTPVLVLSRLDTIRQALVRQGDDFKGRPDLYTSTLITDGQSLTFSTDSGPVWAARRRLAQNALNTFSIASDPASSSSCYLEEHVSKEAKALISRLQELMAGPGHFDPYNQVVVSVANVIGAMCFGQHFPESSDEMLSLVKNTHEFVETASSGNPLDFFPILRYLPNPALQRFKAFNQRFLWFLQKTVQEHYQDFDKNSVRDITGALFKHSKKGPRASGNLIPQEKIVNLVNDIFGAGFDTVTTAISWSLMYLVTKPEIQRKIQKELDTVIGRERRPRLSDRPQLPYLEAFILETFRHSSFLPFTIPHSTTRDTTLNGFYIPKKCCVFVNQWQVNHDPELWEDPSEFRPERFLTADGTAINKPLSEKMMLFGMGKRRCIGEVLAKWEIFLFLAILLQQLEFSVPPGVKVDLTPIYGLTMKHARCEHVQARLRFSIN

[6] = molecular target: Cytochrome P450 2C19 (Homo sapiens, UniProt P33261); experiment: Cytochrome panel assay with activity outcomes. Panel member name: p450-cyp2c19 Compounds with AC50 equal or less than 10 uM are considered active; format: functional; conditions: read-out: AC50
[7] = molecular target: Cytochrome P450 3A4 (Homo sapiens, UniProt P08684);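 also: CYP3A4 tested as one member of a cytochrome P450 panel screen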
[8] = viability of HCT116 lacking mutant beta-catenin – cell-based, human colon tumor, dose response (AID 1045); format: functional;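 also: HCT116 colon tumor cells with beta catenin knocked out; cells exposed to compound for 60 hours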
[9] = viability of PTEN-deleted HCT116 cells – cell-based, HCT116 PTEN knockout, dose response (AID 1047); format: functional;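 also: HCT116 colon tumor cells with PTEN knocked out; cells exposed to compound for 60 hours before readout; potency for loss of cell viability measured by luminescence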
[10] = molecular target: Genome polyprotein (dengue virus type 2, UniProt P29990); experiment: flavivirus cap methylation enzyme inhibition – biochemical, confirmation dose response, primary screen (AID 588689); format: functional
[11] = molecular target: T3, Fatty acid synthase (Homo sapiens, UniProt P49327); experiment: inhibition of human FAS-TE enzyme activity – biochemical, kinetic fluorescence intensity, dose response (AID 624326); format: functional;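 also: rate of fluorescence rise from hydrolysis of a fluorogenic O-methyl fluorescein ester substrate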
[12] = molecular target: T3, Fatty acid synthase; experiment: inhibition of human FAS-TE enzyme activity – biochemical, endpoint fluorescence intensity, uHTS hits, dose response (AID 624327); format: functional;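 also: fluorescence from hydrolysis of an O-methyl fluorescein acyl ester substrate by the enzyme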
[13] = molecular target: DNA dC->dU-editing enzyme APOBEC-3G (Homo sapiens, UniProt Q9HC16); format: functional;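 also: Dose-response counterscreen measuring inhibition of APOBEC3G DNA deaminase activity, run while confirming APOBEC3A inhibitors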
[14] = molecular target: T4, Carboxy-terminal domain RNA polymerase II polypeptide A small phosphatase 1 (Homo sapiens, UniProt Q9GZU7); experiment: CTDSP1 inhibitors, concentration-response, biochemical, absorbance readout, ultra-high-throughput screen actives (AID 540297); format: functional
T4 sequence (Q9GZU7 whole entry): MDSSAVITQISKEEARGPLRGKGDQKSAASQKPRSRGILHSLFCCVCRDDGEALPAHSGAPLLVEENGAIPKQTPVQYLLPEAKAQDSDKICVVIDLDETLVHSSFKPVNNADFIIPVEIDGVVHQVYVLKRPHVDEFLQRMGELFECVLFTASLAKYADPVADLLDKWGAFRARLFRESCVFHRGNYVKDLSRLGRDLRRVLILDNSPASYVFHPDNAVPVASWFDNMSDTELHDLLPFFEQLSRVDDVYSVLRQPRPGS

[15] = molecular target: DNA dC->dU-editing enzyme APOBEC-3A (Homo sapiens, UniProt P31941); experiment: Dose Response confirmation of small molecule APOBEC3A DNA Deaminase Inhibitors via a fluorescence-based single-stranded DNA deaminase assay. [Related pubchem assays (depositor defined):AID493011, AID493024]; format: functional
[16] = alpha-synuclein stem-loop luciferase translation blockers – H4 neuroglioma cells, luminescence, confirmation (AID 1988); format: functional, cell-based
[17] = test system: Vero; experiment: cells; format: functional; conditions: Chlorocebus sabaeus
[18] = Luminescence Cell-Based Dose Response HTS to Identify Inhibitors of 5'UTR Stem-Loop Driven Prion Protein mRNA Translation in H4 Neuroglioblastoma Cells. [Related pubchem assays: 1827 (Project Summary), 1813 (Primary HTS)]; format: functional
[19] = luciferase reporter signal suppression in cells – H4 neuroglioma cells, luminescence, dose response (AID 1990); format: functional, cell-based
[20] = test system: INS1; experiment: INS-1E survival protection against cytokine death – cell-based, luminescence, retest, dose response (AID 449756); format: functional; conditions: Rattus norvegicus;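 also: cell death triggered by IL-1 beta plus TNF-alpha plus IFN-gamma mixture; protective hits raise ATP signal compared with cytokine alone wells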
[21] = NIH3T3 cell viability loss – ATP luminescence, mouse fibroblasts, counter-screen, dose response (AID 2010); format: functional, cell-based;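 also: cells exposed to compound for about 90 hours before reading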
[22] = Trypanosoma cruzi growth suppression in host cells – NIH3T3 host cells, beta-gal luminescence, confirmation (AID 2044); format: functional, cell-based;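 also: intracellular parasites grown in NIH/3T3 mouse fibroblasts as host cells; luminescent beta-galactosidase reporter signal from transgenic T. cruzi replicating inside host cells; inhibitors lower the luminescence signal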
[23] = molecular target: T5, Short transient receptor potential channel 4 (Mus musculus, UniProt Q9QUQ5); experiment: block of DAMGO-driven TRPC4 calcium entry – cell-based, HEK293 TRPC4/mu-opioid, Fluo-4 calcium, dose response (AID 434942); format: functional;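 also: potency of inhibitors blocking the TRPC4 calcium response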
T5 sequence (Q9QUQ5 whole entry): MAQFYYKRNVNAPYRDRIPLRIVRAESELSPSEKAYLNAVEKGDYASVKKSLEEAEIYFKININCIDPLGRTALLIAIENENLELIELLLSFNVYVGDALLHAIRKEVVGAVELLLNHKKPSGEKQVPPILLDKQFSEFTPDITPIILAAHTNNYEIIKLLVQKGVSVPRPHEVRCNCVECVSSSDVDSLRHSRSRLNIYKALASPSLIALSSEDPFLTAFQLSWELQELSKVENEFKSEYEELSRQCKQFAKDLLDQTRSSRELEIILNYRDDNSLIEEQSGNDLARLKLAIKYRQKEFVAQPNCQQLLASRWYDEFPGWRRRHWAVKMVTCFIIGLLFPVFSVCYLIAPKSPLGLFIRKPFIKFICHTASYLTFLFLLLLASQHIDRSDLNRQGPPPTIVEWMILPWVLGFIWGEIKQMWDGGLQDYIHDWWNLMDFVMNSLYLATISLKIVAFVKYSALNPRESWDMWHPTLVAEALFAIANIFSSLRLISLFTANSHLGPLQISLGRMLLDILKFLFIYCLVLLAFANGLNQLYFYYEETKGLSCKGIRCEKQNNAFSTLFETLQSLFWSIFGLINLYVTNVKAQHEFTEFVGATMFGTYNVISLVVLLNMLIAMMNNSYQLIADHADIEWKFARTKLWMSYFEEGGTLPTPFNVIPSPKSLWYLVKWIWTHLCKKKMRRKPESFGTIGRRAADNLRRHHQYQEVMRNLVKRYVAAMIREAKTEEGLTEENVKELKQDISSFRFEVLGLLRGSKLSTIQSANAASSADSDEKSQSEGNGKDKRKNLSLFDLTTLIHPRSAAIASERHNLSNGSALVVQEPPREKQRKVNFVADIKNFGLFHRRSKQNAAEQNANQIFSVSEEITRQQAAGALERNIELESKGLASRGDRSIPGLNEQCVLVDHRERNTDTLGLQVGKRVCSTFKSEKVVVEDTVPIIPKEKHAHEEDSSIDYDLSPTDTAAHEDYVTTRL

[24] = molecular target: Cytochrome P450 2D6 (Homo sapiens, UniProt P10635)
[25] = HIV-1 AD8 envelope cell-cell fusion blockers – cherry-pick, dose response (AID 652062); format: functional, cell-based;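 also: luciferase signal from cell-cell fusion driven by HIV-1 clade B AD8 Env; potency is for inhibitors of fusion seen as a drop in luminescence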

Genome polyprotein, sequence (P29990 2492-3391 limits assumed): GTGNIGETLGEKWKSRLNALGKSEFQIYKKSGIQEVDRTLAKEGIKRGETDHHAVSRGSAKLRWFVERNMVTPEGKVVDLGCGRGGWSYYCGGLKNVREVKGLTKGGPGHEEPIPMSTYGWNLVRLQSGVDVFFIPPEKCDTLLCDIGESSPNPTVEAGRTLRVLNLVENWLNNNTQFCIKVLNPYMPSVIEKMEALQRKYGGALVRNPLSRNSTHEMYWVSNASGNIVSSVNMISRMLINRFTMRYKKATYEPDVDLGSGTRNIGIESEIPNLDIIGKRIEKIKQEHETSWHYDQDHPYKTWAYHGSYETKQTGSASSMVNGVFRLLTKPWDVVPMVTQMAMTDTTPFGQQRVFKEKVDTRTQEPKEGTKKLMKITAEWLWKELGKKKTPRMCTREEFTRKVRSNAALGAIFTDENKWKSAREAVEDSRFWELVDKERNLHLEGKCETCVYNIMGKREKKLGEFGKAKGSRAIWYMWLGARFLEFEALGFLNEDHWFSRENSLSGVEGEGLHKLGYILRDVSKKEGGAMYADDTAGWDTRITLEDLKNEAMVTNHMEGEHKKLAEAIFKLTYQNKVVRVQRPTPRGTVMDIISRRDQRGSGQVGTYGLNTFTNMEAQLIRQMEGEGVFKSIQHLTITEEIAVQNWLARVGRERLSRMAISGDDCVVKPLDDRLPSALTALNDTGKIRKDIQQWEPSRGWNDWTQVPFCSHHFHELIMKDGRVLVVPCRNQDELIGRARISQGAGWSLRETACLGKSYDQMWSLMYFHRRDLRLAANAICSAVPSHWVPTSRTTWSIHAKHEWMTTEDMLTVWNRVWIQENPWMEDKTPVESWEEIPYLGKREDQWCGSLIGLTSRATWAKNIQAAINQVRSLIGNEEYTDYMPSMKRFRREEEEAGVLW
DNA dC->dU-editing enzyme APOBEC-3G, sequence (Q9HC16 whole entry, the tested form may be a part): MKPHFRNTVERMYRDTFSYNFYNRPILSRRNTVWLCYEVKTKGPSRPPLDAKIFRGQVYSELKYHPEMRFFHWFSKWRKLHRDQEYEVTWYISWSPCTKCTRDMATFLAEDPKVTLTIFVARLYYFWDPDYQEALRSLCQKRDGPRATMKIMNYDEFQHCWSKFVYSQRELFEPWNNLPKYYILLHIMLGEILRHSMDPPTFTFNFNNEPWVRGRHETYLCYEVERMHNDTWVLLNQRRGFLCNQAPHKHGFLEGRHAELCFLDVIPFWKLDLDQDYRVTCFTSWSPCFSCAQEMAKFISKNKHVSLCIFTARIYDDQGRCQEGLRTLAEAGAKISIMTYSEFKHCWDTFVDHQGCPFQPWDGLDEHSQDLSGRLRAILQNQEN
DNA dC->dU-editing enzyme APOBEC-3A, sequence (P31941 whole entry): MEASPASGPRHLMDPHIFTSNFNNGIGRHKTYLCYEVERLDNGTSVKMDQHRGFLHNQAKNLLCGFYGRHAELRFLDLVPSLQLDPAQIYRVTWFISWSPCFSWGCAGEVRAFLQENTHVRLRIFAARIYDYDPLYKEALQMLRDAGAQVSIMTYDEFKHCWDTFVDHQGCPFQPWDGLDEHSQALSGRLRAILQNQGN
Cytochrome P450 2C9, sequence (P11712 whole entry): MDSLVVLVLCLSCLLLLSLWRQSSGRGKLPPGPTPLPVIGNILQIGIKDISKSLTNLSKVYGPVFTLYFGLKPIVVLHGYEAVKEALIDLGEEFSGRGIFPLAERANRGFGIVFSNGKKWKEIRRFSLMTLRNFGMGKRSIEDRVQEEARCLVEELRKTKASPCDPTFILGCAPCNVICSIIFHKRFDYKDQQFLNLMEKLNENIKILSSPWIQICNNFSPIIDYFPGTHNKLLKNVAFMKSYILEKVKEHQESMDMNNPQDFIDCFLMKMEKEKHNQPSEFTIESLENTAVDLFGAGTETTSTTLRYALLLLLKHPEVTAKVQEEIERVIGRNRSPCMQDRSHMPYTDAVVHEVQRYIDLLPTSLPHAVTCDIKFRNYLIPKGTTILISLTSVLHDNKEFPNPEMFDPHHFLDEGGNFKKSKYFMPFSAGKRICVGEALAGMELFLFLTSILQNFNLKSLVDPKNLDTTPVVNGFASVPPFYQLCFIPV
T3 sequence (P49327 whole entry): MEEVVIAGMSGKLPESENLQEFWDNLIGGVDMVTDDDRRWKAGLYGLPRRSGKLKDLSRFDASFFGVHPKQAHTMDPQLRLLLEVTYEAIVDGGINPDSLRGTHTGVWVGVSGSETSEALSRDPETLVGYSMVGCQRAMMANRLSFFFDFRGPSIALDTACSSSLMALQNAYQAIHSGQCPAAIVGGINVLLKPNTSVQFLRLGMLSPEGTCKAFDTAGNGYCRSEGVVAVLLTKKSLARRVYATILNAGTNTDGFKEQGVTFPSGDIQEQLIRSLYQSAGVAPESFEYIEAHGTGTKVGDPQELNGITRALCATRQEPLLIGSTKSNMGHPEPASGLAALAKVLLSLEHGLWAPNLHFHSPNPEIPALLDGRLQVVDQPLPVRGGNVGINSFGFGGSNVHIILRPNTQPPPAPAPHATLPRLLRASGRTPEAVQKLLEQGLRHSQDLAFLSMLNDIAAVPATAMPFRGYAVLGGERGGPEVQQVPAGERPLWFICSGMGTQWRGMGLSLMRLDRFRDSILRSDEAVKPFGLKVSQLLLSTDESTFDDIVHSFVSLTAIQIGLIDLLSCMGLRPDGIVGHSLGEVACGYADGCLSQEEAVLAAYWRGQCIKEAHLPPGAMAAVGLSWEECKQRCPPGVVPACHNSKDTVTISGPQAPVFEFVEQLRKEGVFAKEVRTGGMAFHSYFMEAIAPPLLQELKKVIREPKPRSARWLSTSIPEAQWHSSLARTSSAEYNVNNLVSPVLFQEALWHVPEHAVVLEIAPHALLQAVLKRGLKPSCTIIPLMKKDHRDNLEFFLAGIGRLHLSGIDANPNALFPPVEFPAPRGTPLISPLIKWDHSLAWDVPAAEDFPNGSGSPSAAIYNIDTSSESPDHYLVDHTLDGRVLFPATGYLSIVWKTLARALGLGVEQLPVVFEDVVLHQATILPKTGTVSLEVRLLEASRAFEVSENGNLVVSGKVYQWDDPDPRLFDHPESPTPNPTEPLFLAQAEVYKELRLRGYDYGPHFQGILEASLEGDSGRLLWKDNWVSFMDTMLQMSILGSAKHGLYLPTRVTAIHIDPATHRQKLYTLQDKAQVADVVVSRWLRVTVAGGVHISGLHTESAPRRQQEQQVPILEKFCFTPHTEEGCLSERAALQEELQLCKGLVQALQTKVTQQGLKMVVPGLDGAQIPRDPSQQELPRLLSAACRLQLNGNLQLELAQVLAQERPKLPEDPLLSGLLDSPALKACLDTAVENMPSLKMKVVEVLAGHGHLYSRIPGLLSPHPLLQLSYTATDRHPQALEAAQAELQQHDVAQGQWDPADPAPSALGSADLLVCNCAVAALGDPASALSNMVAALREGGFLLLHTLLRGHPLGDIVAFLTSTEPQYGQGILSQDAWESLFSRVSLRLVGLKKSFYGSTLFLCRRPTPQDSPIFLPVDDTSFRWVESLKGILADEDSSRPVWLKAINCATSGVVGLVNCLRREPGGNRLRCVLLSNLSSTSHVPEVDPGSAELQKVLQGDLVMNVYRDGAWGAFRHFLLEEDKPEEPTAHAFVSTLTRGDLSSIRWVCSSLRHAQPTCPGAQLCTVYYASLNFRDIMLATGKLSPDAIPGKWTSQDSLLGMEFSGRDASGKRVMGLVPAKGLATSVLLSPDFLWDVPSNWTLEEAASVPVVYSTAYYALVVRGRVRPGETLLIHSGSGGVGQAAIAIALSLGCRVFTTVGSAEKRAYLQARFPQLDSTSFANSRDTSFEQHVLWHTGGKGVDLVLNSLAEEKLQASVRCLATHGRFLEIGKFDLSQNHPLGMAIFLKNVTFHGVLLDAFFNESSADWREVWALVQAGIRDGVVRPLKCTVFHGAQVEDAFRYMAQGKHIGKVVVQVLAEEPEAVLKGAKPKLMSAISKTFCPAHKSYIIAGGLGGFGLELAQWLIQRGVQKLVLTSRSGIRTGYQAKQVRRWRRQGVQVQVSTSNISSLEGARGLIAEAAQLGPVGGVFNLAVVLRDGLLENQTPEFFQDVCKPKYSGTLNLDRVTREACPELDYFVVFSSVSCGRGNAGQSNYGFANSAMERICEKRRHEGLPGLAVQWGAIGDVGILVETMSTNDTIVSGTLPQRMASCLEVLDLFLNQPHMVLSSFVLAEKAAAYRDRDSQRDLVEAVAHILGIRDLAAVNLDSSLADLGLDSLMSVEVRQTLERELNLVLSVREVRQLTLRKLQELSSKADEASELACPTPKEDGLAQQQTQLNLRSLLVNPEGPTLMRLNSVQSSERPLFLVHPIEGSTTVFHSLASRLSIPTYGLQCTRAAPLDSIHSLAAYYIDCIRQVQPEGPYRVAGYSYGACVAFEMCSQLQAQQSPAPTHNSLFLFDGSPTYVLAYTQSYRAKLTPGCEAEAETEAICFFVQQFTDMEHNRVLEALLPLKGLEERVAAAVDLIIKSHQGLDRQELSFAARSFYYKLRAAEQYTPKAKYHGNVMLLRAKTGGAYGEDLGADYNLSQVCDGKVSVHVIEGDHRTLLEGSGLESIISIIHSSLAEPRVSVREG
Cytochrome P450 2C19, sequence (P33261 whole entry): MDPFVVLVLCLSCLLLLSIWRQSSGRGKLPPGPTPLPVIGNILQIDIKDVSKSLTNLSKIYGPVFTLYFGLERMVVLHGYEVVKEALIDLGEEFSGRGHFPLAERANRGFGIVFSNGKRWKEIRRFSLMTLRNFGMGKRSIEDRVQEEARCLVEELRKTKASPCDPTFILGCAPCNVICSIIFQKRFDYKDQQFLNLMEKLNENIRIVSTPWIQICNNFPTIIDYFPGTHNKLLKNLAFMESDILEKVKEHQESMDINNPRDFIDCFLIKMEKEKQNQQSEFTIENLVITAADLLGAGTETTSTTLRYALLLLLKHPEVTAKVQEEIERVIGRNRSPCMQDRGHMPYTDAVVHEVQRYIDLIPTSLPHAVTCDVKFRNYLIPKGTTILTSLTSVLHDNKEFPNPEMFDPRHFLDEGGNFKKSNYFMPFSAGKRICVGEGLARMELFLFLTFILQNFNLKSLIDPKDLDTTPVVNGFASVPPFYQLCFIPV

COc1ccc(C(=O)N(C)c2c(C)n(C)n(-c3ccccc3)c2=O)cc1OC
IC50 [1]: 18.1 µM (not active)

COc1ccc(N=C2C(=O)Nc3c(C)cccc32)cc1
IC50 [2]: > 100 µM (active)

COc1ccc(CCNCC(O)COc2c(C)cccc2C)cc1OC (configuration not stated)
AC50 [3]: > 150 µM (inactive)

CN(CC(=O)Nc1ccc(N2CCOCC2)cc1)CC(=O)Nc1ccc(N2CCOCC2)cc1
IC50 [1]: 0.655 µM (not active)

Cn1nc(C(=O)Nc2ccc(S(=O)(=O)N3CCCCC3)cc2)c2ccccc2c1=O
IC50 [1]: > 50 µM (not active)

O=C(Cc1ccccc1)Nc1ccccc1N1CCOCC1
AC50 [4]: inconclusive | AC50 [5]: 6.31 µM (inconclusive) | AC50 [6]: 8.91 µM (inconclusive) | AC50 [7]: 6.31 µM (inconclusive)

CCOC(=O)CNC(=O)c1ccccc1
AC50 [3]: 21 µM (active)

CCn1c(C)nc2cc(S(=O)(=O)C(F)(F)C(F)C(F)(F)F)ccc21 (configuration not stated)
IC50 [1]: 3.91 µM (active)

COc1cc2c3c(c1)-c1c(sn(-c4cc(OC)ccc4OC)c1=S)C(C)(C)N3C(=O)C2=O
EC50 [8]: 51 µM (active) | EC50 [9]: 42.3 µM (active) | IC50 [10]: 61.9 µM (active)

CCCC(=O)Nc1ccc(Cl)c(NC(=S)NC(=O)c2cc3ccccc3o2)c1
IC50 [1]: > 50 µM (not active)

CC(OC(=O)c1ccc(Cl)c([N+](=O)[O-])c1)C(=O)N1CCN(Cc2ccccc2)CC1 (configuration not stated)
IC50 [11]: 3.36 µM (active) | IC50 [12]: 6.15 µM (active)

CCn1cc(C(=O)O)c(=O)c2cc(F)c(N3CCN(C)CC3)cc21 [PEFLOXACIN MESYLATE]
AC50 [3]: 1.83 µM (active)

O=C(/C=C/c1ccco1)OCC(=O)N1CCCCC1
IC50 [13]: 35.9 µM (active) | IC50 [14]: 5.75 µM (active) | IC50 [15]: 19.5 µM (active)

COc1ccc(NC(C)=O)cc1NC(=O)CN1CCN(C2c3ccccc3-c3ccccc32)CC1
EC50 [16]: 14.7 µM (active) | CC50 [17]: 19.3 µM (active) | EC50 [18]: > 120 µM (not active) | EC50 [19]: > 120 µM (not active)

Cc1cc(=O)c2ccccc2[nH]1
AC50 [4]: inconclusive | AC50 [5]: 25.1 µM (inconclusive)

Cc1cc(C)nc(N=C(N)Nc2ccc(S(=O)(=O)O)cc2)n1
IC50 [1]: < 0.4 µM (not active)

C#CCOc1c(Br)cc(/C=C2/C(=O)ON=C2C)cc1OCC
IC50 [10]: 84.7 µM (active)

O=C1/C(=C/c2ccc(F)cc2)SC(=S)N1NS(=O)(=O)c1ccccc1
IC50 [10]: 36.7 µM (active)

CC(C)(C)C1CCC(OC(=O)C[N+]2(C)CCCC2)CC1 (configuration not stated)
IC50 [13]: 3.36 µM (active) | IC50 [15]: 2.96 µM (active)

CC[n+]1ccc(/C=C/c2c[nH]c3ccccc23)cc1
AC50 [20]: 5.79 µM (active) | IC50 [13]: 12.3 µM (active) | EC50 [21]: > 60 µM (not active) | IC50 [15]: 5.16 µM (active) | EC50 [22]: 0.839 µM (active)

O=C(Nc1ccc(-c2nc3ncccc3o2)cc1)c1ccco1
AC50 [3]: 30.5 µM (active)

O=[N+]([O-])c1ccc([CH+][N-]NC(=S)N[N-][CH+]c2ccc([N+](=O)[O-])cc2)cc1
IC50 [14]: 4.17 µM (active)

O=C1/C(=C/c2ccccc2Cl)SC(=S)N1CCCC(=O)N(CCO)c1ccccc1
IC50 [11]: 9.91 µM (active) | EC50 [23]: 0.473 µM (active) | IC50 [12]: 14.2 µM (active)

COc1ccc(/N=C/c2c(O)oc3ccccc3c2=O)cc1
IC50 [2]: > 100 µM (active)

Cn1nc(C(=O)Nc2ccc(-n3cnnn3)cc2)c2ccccc2c1=O
IC50 [14]: 25.7 µM (active)

COc1cccc(C2C3=C(O)CC(C)(C)CC3=NC(C)=C2C(=O)Nc2nc3ccccc3s2)c1OC (configuration not stated)
IC50 [2]: > 100 µM (active)

C=CCOc1ccc(/C=N/O)cc1Cl
IC50 [2]: > 100 µM (active)

CSc1ccccc1NC(=O)CN(C)CC(=O)c1[nH]c(C)c(C(C)=O)c1C
IC50 [13]: 18.9 µM (active) | IC50 [15]: 6.83 µM (active)

O=C(NCCc1ccccc1)/C(=C\c1cccc([N+](=O)[O-])c1)NC(=O)c1ccco1
IC50 [11]: 4.22 µM (active) | IC50 [12]: 3.04 µM (active)

Cc1cc(Cl)ccc1OCCCC(=O)N1CCN(C)CC1
AC50 [4]: inconclusive | AC50 [24]: 14.1 µM (inconclusive) | AC50 [5]: 15.8 µM (inconclusive)

CCC(C)N1C(=O)/C(=C\c2cc3c4c(c2)CCCN4CCC3)C(=O)NC1=S (configuration not stated)
CC50 [17]: > 25 µM (active)

CC(C)OCCCNc1[nH]cnc2c3ccccc3nc1-2
AC50 [25]: 5.7 µM (active) | AC50 [20]: 2.87 µM (active)

Cc1nc(NC(=O)/C=C/c2ccccc2)sc1C(=O)N(C)C
AC50 [3]: 43.6 µM (active)

COCCOc1ccc(C(F)(F)F)cc1NC(=O)Cc1ccc(S(=O)(=O)N2CCOCC2)s1
IC50 [11]: 8.23 µM (active) | IC50 [12]: 6.76 µM (active)

CC/N=C1\S/C(=C\c2cn(C(C)=O)nc2-c2ccccc2)C(=O)N1CC
CC50 [17]: 24.8 µM (active)

O=[N+]([O-])c1cccc(OCCN2CCC(Cc3ccccc3)CC2)c1
IC50 [11]: 4.72 µM (active) | IC50 [12]: 5.3 µM (active)
